This note sets out measurements from patent US4849434A, “Novel thiazolidin-4-one derivatives and acid addition salts therof” (Sumitomo Pharmaceuticals Company, Limited, priority 1986, dated 1989).

Molecules are shown by their SMILES. Values after ≈ are worked out from the molar mass of the structure shown. Read-outs that look alike come from different tables or passages of the source.

In assay [1] the test system is rabbit platelet aggregation caused by PAF. The assay can be described thus: Inhibition of PAF-induced platelet aggregation in vitro test. Particulars: rabbit PRP; for Specific activity relative to the activity of the compound of Example 1: inhibition of PAF-induced aggregation, compound of Example 1 = 1. The assay is classed as cell-based, rabbit (Japanese white crossbred male). The protocol:
The inhibition of PAF-induced platelet aggregation was examined by use of a platelet-rich plasma [PRP] of a rabbit according to the method of Mustard et al. [J. F. Mustard et al., J. Lab. Clin. Med., 64, 548 (1964)], which is an improved version of the method of Born [G. V. R. Born, J. Physiol., London, 162, 67 (1962)]. Thus, 80 to 100 ml of blood per animal was collected from the carotid artery of a Japanese white crossbred male rabbit without anesthesia into a polyethylene vessel in which 1/10 the volume of a 3.8% sodium citrate solution had been placed beforehand. A portion (about 3 ml) of the blood thus collected was subjected to high speed centrifugation (11,000 rpm, 60 seconds) to obtain a platelet-poor plasma (PPP) as supernatant. The remainder of the blood was subjected to low speed centrifugation (1,000 rpm, 10 minutes) to obtain a platelet-richplasma (PRP) as supernatant.
The platelet aggregation was evaluated by nephelometry, the determination being made with PRP stirred at 1,000 rpm at 37° C. by use of an aggregater (Hematracer, Niko Bioscience Co.). The platelet aggregation activity was expressed in terms of the percent of light transmission, that of PRP being taken as 0% and that of PPP being taken as 100%. A 0.2 ml portion of PRP was placed in a glass cuvette containing a silicone-treatediron stirring rod, and 2 μl of dimethyl sulfoxide was added thereto. After 2 minutes, a PAF solution in 0.25% BSA physiological saline was added thereto to give a final concentration of PAF of […] and the maximum aggregation was determined. To examine the inhibitory activity of test compounds for the platelet aggregation caused by PAF, 2 μl of a test compound dissolved in dimethyl sulfoxide was added in place of dimethyl sulfoxide described above. The PAF inhibitory rate of a test compound was calculated according to the following equation: [formula]

The subject of assay [2] is platelet aggregation caused by PAF. The assay is described as follows: Inhibition of platelet aggregation, outside-living-body test (rabbit, intravenous). It counts as in vivo. Particulars: Oryctolagus cuniculus, EC50 is of PAF, higher = more inhibition, read-out: EC50 value (PAF concentration necessary for causing an aggregation corresponding to 50% of the maximum PAF reaction). How it is done:
(§1) The test compound was intravenously administered (30 mg/kg) to a rabbit or orally administered (50 mg/kg) to a guinea pig. Blood samples were collected, and the extent of platelet aggregation caused by 10^-12 -10^-6 M of PAF was examined. The numerical values in the Table show the PAF concentrations (EC50 nM) necessary for causing an aggregation corresponding to 50% of the maximum PAF reaction.

Assay [3] has the same test system. The assay is described as follows: Inhibition of platelet aggregation, outside-living-body test (guinea pig, oral). The assay is classed as in vivo. To be noted: Cavia porcellus, EC50 is of PAF, higher = more inhibition, read-out: EC50 value (PAF concentration necessary for causing an aggregation corresponding to 50% of the maximum PAF reaction). How it is done: as §1

On to `C=CCN1C(=O)C(c2ccc(Cl)cc2)SC1c1cccnc1` (single isomer, unassigned) [Example 17], for which the “Specific activity relative to the activity of the compound of Example 1” value in assay [1] is given as 1.0. Regarding `CN1C(=O)C(c2ccc(F)cc2)SC1c1cccnc1` (stereo not shown) [Example 4], in assay [1], the “Specific activity relative to the activity of the compound of Example 1” value came to 1.3. As to `CCN1C(=O)C(c2ccc(Cl)cc2)SC1c1cccnc1` (stereo not shown) [Example 15], the “Specific activity relative to the activity of the compound of Example 1” value in assay [1] is recorded as 0.5. Regarding `COc1ccc(CCN2C(=O)C(c3ccc(Cl)cc3)SC2c2cccnc2)cc1OC` (single isomer, unassigned) [Example 21], in assay [1], the “Specific activity relative to the activity of the compound of Example 1” value was determined as 2.2.

On to `CN1C(=O)C(c2ccccc2)SC1c1cccnc1` (stereo not shown) [Example 14], for which the “Specific activity relative to the activity of the compound of Example 1” value in assay [1] stood at 1.4. For the compound `CN1C(=O)C(c2ccc(Cl)cc2)SC1c1cccnc1` (stereo not shown) [Example 1, 5-(4-chlorophenyl)-3-methyl-2-(3-pyridyl)thiazolidin-4-one], in assay [1] (Oryctolagus cuniculus, Platelet, PAF-induced aggregation), the IC50 (usually the concentration at which inhibition is half-maximal) is 5 µg/mL (≈ 16.4 µM). Further, the EC50 at 30 mg/kg was found to be 6.2 nM in assay [2] (0 hr after administration); 26 nM in assay [2] (0.5 hr after administration); 20 nM in assay [2] (1 hr after administration); 16 nM in assay [2] (2 hr after administration); 14 nM in assay [2] (4 hr after administration). For the same compound, the EC50 at 50 mg/kg in assay [3] (0 hr after administration) worked out at 0.23 nM; in assay [3] (0.5 hr after administration), 10 nM; in assay [3] (1 hr after administration), 17 nM; in assay [3] (2 hr after administration) it was 3 nM; in assay [3] (4 hr after administration), 1 nM. As for `CN1C(=O)C(c2c(Cl)cccc2Cl)SC1c1cccnc1` (stereo not shown) [Example 13], the “Specific activity relative to the activity of the compound of Example 1” value in assay [1] came out at 2.3. In the case of `CN1C(=O)C(c2cccc3ccccc23)SC1c1cccnc1` (stereo not shown) [Example 5], in assay [1], the “Specific activity relative to the activity of the compound of Example 1” value is 0.9. With `C#CCN1C(=O)C(c2ccc(Cl)cc2)SC1c1cccnc1` (single isomer, unassigned) [Example 19], the “Specific activity relative to the activity of the compound of Example 1” value in assay [1] is on record as 1.2. Turning to `COc1ccc(C2SC(c3cccnc3)N(C)C2=O)cc1OC` (stereo not shown) [Example 11], the “Specific activity relative to the activity of the compound of Example 1” value in assay [1] came out at 0.7. Consider `O=C1C(c2ccc(Cl)cc2)SC(c2cccnc2)N1CCCO` (stereo not shown) [Example 27], for which, in assay [1], the “Specific activity relative to the activity of the compound of Example 1” value was found to be 0.6. As to `CC(=O)OCCN1C(=O)C(c2ccc(Cl)cc2)SC1c1cccnc1` (single isomer, unassigned) [Example 32], the “Specific activity relative to the activity of the compound of Example 1” value in assay [1] amounted to 1.8.
